Source: patent US11472843B2, “Malacidins and methods of use” (The Rockefeller University, priority 2017, dated 2022)

Legend:
S. aureus NRS140 = assay: MIC assay, S. aureus NRS140; type: cell-based, Staphylococcus aureus; settings: β-lactams
Method: (§1) MIC assays were performed in duplicate in 96-well microtiter plates on the basis of the protocol recommended by the Clinical and Laboratory Standards Institute (Cockerill, 2012, Clinical and Laboratory Standards Institute). All presented data are the average of at least three independent assays. Stock solutions of malacidin or daptomycin (2 mg ml^−1 in H2O) were added to the first well in a row and serially diluted (twofold per transfer) across the microtiter plate. CaCl2 was supplemented to media at a final concentration of 15 mM and fetal bovine serum (ATCC) was added to media (1:10) to test the effect of serum. Overnight cultures of bacteria were diluted 5,000-fold, and 50 μl was used as an inoculum in each well. MIC values were determined by visual inspection after 18 h incubation (30° C., static growth). For the enhanced calcium titration experiments, standard MIC assays were performed with methicillin-resistant Staphylococcus aureus (MRSA) PFGE strain type USA300 in media supplemented with CaCl2 at: 25.0, 18.8, 14.1, 7.03, 3.52, 2.50, 1.76, 0.880, 0.440, 0.250 and 0 mM. To assess the effects of monovalent and divalent cations on malacidin activity, standard MIC assays were performed with MRSA USA300 in media supplemented with 15 mM CaCl2, MgCl2, MnCl2, ZnCl2, SrCl2, NaCl and KCl. To evaluate the effects of pulmonary surfactants on activity against a community-acquired pneumonia-causing pathogen, standard MIC assays were performed with Streptococcus pneumoniae TCH8431 in media supplemented with both 15 mM […] and Survanta (beractant) at a final concentration of 5, 1, 0.5, 0.25 or 0% (volume/volume (v/v) percent).

[1] = Complex formation with cell wall precursors (TLC mobility shift), lipid II; type: binding
Method: (§2) Binding of malacidin to C55-P and lipid II was evaluated by incubating 1 nmol of each purified precursor with 0.5 nmol of malacidin or daptomycin in 100 mM Tris-HCl, pH 7.5, 0.1% Triton X-100, 13 mM MgCl2, and with or without 25 mM CaCl2, for 60 min at 37° C. Subsequently, the mixture was extracted twice with n-BuOH/6 M pyridinium acetate buffer, pH 4.2 (3:1, v/v). The butanol fraction was evaporated and the residue was dissolved in CHCl3/methanol (1:1, v/v). The resuspension was analysed for the loss of unbound malacidin or daptomycin to a complex by TLC analysis using chloroform/methanol/water/ammonia (88:48:10:1, v/v/v/v) as the solvent and detection by 254/366 nm visualization. Experiments were performed with biological replicates.

MRSA USA300 [2] = assay: Membrane leakage assay (SYTOX green); type: cell-based, Staphylococcus aureus; settings: 20 μg ml^−1
Method: The effects of malacidin on membrane integrity was assessed using SYTOX green. In brief, single colonies of MRSA USA300 were grown in LB media with and without 15 mM CaCl2 to an OD600 nm of 0.35. Nine hundred microlitres of cells were mixed with 100 μL of 17 μM SYTOX green dye (Thermo Fisher). The resulting mixture was incubated for 5 min at 22° C., and then distributed to a microtiter plate at 50 μl per well. An initial reading of fluorescence pre-antibiotic addition was measured at excitation and emission wavelengths of 488 nm and 523 nm, respectively. Fifty microlitres of antibiotics was added to respective wells at a final concentration of 20 μg ml^−1. Measurements were immediately collected for 10 min. To assess the effects of malacidin on membrane depolarization, similar assays were set up using the membrane potential probe, DiBAC4 (bis-(1,3-dibutylbarbituric acid)trimethine oxonol). Single colonies of MRSA USA300 were grown in LB media with and without 15 mM CaCl2 to an OD600 nm of 0.35. Nine hundred microlitres of cells were mixed with 100 μl of 20 μg ml DiBAC4dye (Thermo Fisher). The resulting mixture was incubated for 5 min at 22° C., and then distributed to a microtiter plate at 50 μl per well. An initial reading of fluorescence pre-antibiotic addition was measured at excitation and emission wavelengths of 492 nm and 515 nm, respectively. Fifty microlitres of antibiotics was added to respective wells at a final concentration of 20 μg ml^−1. Measurements were immediately collected for 10 min. Representative examples from three technical replicates are shown.

S. aureus BAA-42 = assay: MIC assay, S. aureus BAA-42; type: cell-based, Staphylococcus aureus; settings: β-lactams
Method: as §1

S. aureus COL = assay: MIC assay, S. aureus COL; type: cell-based, Staphylococcus aureus; settings: β-lactams
Method: as §1

E. faecium VRE = assay: MIC assay, E. faecium VRE; type: cell-based, Enterococcus faecium; settings: Vancomycin (VRE)
Method: as §1

[3] = Complex formation with cell wall precursors (TLC mobility shift), C55-P; type: binding; settings: 1 nmol precursor, 0.5 nmol antibiotic
Method: as §2

S. aureus USA300 = assay: MIC assay, S. aureus USA300 (MRSA); type: cell-based, Staphylococcus aureus
Method: as §1

MRSA USA300 [4] = assay: Selection for malacidin-resistant mutants; type: cell-based, Staphylococcus aureus; settings: 20 days of exposure to 0.5×MIC, 15 mM calcium
Method: To select for resistant mutants, a single MRSA USA300 colony from a freshly struck plate was inoculated into LB media and grown overnight at 37° C. The saturated overnight culture was diluted 100-fold, supplemented with a sub-lethal dose (0.5×MIC) of malacidin A, vancomycin, daptomycin or rifamycin and 15 mM calcium. Two-hundred-microlitre aliquots were then distributed into microtiter plate wells. The next day, 3 μl of culture from each well was used to inoculate 200 μl of calcium-supplemented media (15 mM calcium) with fresh antibiotic at 0.5× and 4×MIC. This process was repeated for 20 days. […] This was repeated over the course of the experiment to assess fold change in MIC at day 0 to day 20.

[5] = system: Streptococcus pneumoniae TCH8431; assay: MIC assay, S. pneumoniae; type: cell-based
Method: as §1

Escherichia coli DH5α = assay: MIC assay, E. coli DH5α; type: cell-based
Method: as §1

What does the source list for malacidin A?
MIC (S. aureus NRS140; S. aureus NRS140, erythromycin, spectinomycin, 15 mM CaCl2): 0.4-0.8 μg m1^−1; MIC (S. aureus NRS140; Staphylococcus aureus NRS140, Erythromycin, Spectinomycin): 0.4 to 2.0 µg/mL; Lipid-II-binding activity (TLC mobility shift) ([1]; 1 nmol precursor, 0.5 nmol antibiotic): lipid-II-dependent disappearance of the malacidin band; Calcium dependence of the interaction with lipid II ([1]; with or without 25 mM CaCl2): calcium-dependent; Membrane leakage (SYTOX green or DiBAC4) (MRSA USA300 [2]; absence of calcium supplementation): No membrane leakage; Membrane leakage (SYTOX green fluorescence) (MRSA USA300 [2]; with calcium (15 mM CaCl2)): does not cause MRSA membrane leakage; MIC (S. aureus BAA-42; S. aureus BAA-42, 15 mM CaCl2): 0.2-0.8 μg m1^−1; MIC (S. aureus BAA-42; Staphylococcus aureus BAA-42): 0.2 to 0.8 µg/mL; MIC (S. aureus COL; S. aureus COL, 15 mM CaCl2): 0.2-0.8 μg m1^−1; MIC (S. aureus COL; Staphylococcus aureus COL): 0.2 to 0.8 µg/mL; MIC (E. faecium VRE; E. faecium VRE, 15 mM CaCl2): 0.4-0.8 μg m1^−1; MIC (E. faecium VRE; Enterococcus faecium VRE): 0.8 to 2.0 µg/mL; Sequestration of C55-P (TLC mobility shift) [3]: did not sequester C55-P; Dependence of antibiosis (MIC) against MRSA on calcium (S. aureus USA300; MRSA USA300, CaCl2 0 to 25.0 mM): calcium-dependent; MIC (S. aureus USA300; S. aureus USA300 + 10% serum, 15 mM CaCl2): 0.2-0.8 μg m1^−1; MIC (S. aureus USA300; S. aureus USA300, acquired resistance β-lactams, 15 mM CaCl2): 0.2-0.8 μg m1^−1; MIC (S. aureus USA300; Staphylococcus aureus + 10% Serum, USA300): 0.2 to 0.8 µg/mL; MIC (S. aureus USA300; Staphylococcus aureus USA300, β-lactams (Methicillin, Oxacillin, Penicillin)): 0.2 to 0.8 µg/mL; Detection of resistant S. aureus after repeated exposure (MRSA USA300 [4]): not detected; Activity against S. pneumoniae in the presence of pulmonary surfactants ([5]; 15 mM CaCl2 and Survanta (beractant) 0-5% v/v): largely unaffected; MIC ([5]; S. pneumoniae, 15 mM CaCl2): 0.8-2.0 μg m1^−1; MIC ([5]; Streptococcus pneumoniae TCH8431): 0.1 to 0.2 µg/mL; MIC (Escherichia coli DH5α): >100 µg/mL
